Experimental data published in US20130316994A1, “Methods of Reducing Risk of Hepatobiliary Dysfunction During Rapid Weight Loss with METAP-2 Inhibitors” (Zafgen, Inc., priority 2010, published 2013).

Tested on: alkaline phosphatase
Experiment: Administration of MetAP2 inhibitor to obese patients: alkaline phosphatase
Type: in vivo, human
Conditions: 0.1, 0.3 or 0.9 mg/m^2 administered biweekly for 26 days, versus placebo, FIG. 1
Protocol: Patients treated with either a placebo, 0.1 mg/m^2 (approximately 0.2 mg per dose) of the MetAP2 inhibitor O-(4-dimethylaminoethoxycinnamoyl)fumagillol, 0.3 mg/m^2 (approximately 0.6 mg per dose), or 0.9 mg/m^2 of calculated body surface area (approximately 1.9 mg per dose) administered biweekly for 26 days. […] This reduction is indicative of a decrease in hepatic injury or hepatobiliary dysfunction, which is consistent with reduced biliary sludging and/or gallstone formation.

## CO[C@@H]1[C@H](OC(=O)C=Cc2ccc(OCCN(C)C)cc2)CC[C@]2(CO2)[C@H]1[C@@]1(C)O[C@@H]1CC=C(C)C [O-(4-dimethylaminoethoxycinnamoyl)fumagillol]
  reduction in alkaline phosphatase: significant reduction in alkaline phosphatase was observed with increasing MetAP2 inhibitor dosage
